Where a name gives a salt, the structure may show the parent alone.
Experiments:
[1] = tested on: ADP-induced aggregation of rabbit blood thrombocyte; experiment: ADP-induced platelet aggregation inhibition, rabbit platelet rich plasma; assay type: cell-based; details: Oryctolagus cuniculus, rabbit PRP, ADP 3×10^-6 M, mean, n = 5, read-out: Platelet aggregation inhibitory action (IC50), ADP-induced aggregation
Procedure: The platelet aggregation inhibitory action of NKH-477 was examined on collagen-induced aggregation and ADP-induced aggregation of rabbit blood thrombocyte. The male Japanese white rabbits (body weight: 2.4-2.8 kg, procured from Tokyo Experimental Animals Co., Ltd.) were divided into groups of 5. The rabbits were etherized and blood was collected from the carotid artery of each rabbit. A 3.8% sodium citrate solution (final concentration: 0.38%) was added to a portion of blood collected from each group of rabbits to obtain platelet rich plasma (PRP). The remaining portion of blood was centrifuged at 3,000 r.p.m. for 15 minutes to obtain platelet poor plasma (PPP). First, permeability of PRP and PPP was determined by using an aggregometer (RMA-31 mfd. by Rika Denki Kogyo K. K.) and set at 0% and 100%, respectively. Separately from the above operation, 250 μl of PRP was placed in a cuvette and after preliminary heating at 37° C. for 2 minutes, 20 μl of specimen was added and incubated under stirring for 2 minutes. Then 10 μl of ADP (Sigma, final conc.: 3×10^-6 M) or collagen (Hormon-Chemie, final conc.: 10 μg/ml) was added and the transmission rate was measured. The maximum transmission rate observed in this operation was termed as the maximum aggregation rate. Recording in this operation was conducted on an ink-written recorder (B-381L mfd. by Rika Denki Kogyo K. K.). […]

[2] = tested on: ADP-induced aggregation; experiment: ADP-induced aggregation after intravenous administration to healthy adults; assay type: in vivo, healthy adults (human); details: i.v. 0.8 μg/kg/min for one hour, mean of four subjects
Procedure: (§1) A freeze-dried preparation comprising NKH-477 was dissolved in a physiological saline and administered intravenously to four healthy adults at a rate of 0.8 μg/kg/min for one hour. The degrees of ADP-induced aggregation, epinephrine-induced aggregation and collagen-induced aggregation upon end of administration were measured and compared with those before administration (each figure is the average of measurements on the four subjects).

[3] = tested on: epinephrine-induced aggregation; experiment: Epinephrine-induced aggregation after intravenous administration to healthy adults; assay type: in vivo, healthy adults (human); details: i.v. 0.8 μg/kg/min for one hour, mean of four subjects
Procedure: as §1

[4] = tested on: whole-stratum skin cut-off model (skin ulcer); experiment: Remedial effect for skin ulcer, whole-stratum skin cut-off model in rats; assay type: in vivo, male Wister rats; details: for Lesion reduction rate in whole-stratum skin cut-off model: 1 ml of 1 mg/ml applied daily, mean, n = 2
Procedure: The remedial effect of NKH-477 for skin ulcer was ascertained by the following test.
The abdominal region of each of the test animals--male Wister rats (10 weeks old and weighing 350-390 g) divided into groups of 2--was […] and a piece of skin of about 3 cm in diameter was cut off from said abdominal region of each test rat under anesthesia with pentobarbital (40 mg/kg, i.p.) to prepare a whole-stratum skin cut-off model, and it was used as a skin ulcer model. NKH-477 was used as the test compound (specimen) while a physiological saline was used as control. The specimen was dissolved in a physiological saline (1 mg/ml), and 1 ml of the solution was applied directly to the affected region every day, the treated part being covered with gauze fixed in position. The areas of lesion after the lapse of 1 day, 2 days, 3 days and 5 days from start of application of the specimen solution were measured by a digitizer to determine the lesion reduction rate, from which the skin ulcer curative effect of the test compound was evaluated.

[5] = tested on: femoral blood flow; experiment: Effect on femoral blood flow in anesthetized dogs; assay type: in vivo, dog; details: for Increase in femoral blood flow rate: mean ± SE
Procedure: (1) Effect on femoral blood flow in anesthetized dogs was tested.
A non-cannulating probe (FF-030T mfd. by Nihon Kohden K. K.) of an electromagnetic flow meter (MFV-2100 mfd. by Nihon Kohden K. K.) was placed around the left femoral artery of a dog anesthetized with pentobarbital to measure femoral bloow flow rate. The femoral blood flow rate was recorded on an ink-written recorder (WI-681G by Nihon Kohden K. K.).
NKH-477 was dissolved in a physiological saline and injected into the right cephalic vein through a Nelaton's tube.

[6] = tested on: NB-1 cells (a human neuroblastoma strain); experiment: Differentiation inducing effect for NB-1 cells; assay type: cell-based; details: 4-hour incubation
Procedure: The differentiation inducing effect for the NB-1 cells (a human neuroblastoma strain: cell strain derived from neuroblastoma generated in infantile adrenal gland) was examined. The NB-1 cells were applied to a 96-well plate at a rate of 2×10^3 cells/well and precultured for 3 days. After attachment and growth were stabilized, the medium (RPMI 1640+10% fetal calf serum+SM.PC) was exchanged and a 10 μl solution of each test compound was added. Then, the cells were kept under constant observation to determine the occurrence or non-occurrence of differentiation. 2 mM (1.037 mg/ml) of dibutyryl cAMP dissolved in RPMI 1640 was used as positive control. NKH-477 and 14,15-dihydro-6-(3-dimethylaminopropionyl)forskolin hydrochloride were dissolved in a physiological saline. Forskolin was dissolved in DMSO and diluted with a physiological saline. The criterion for judgment of morphological change in differentiation is as follows. The figures in the parentheses are the ratio of the differentiated cells to the whole cells. It was confirmed that DMSO was totally devoid of differentiation inducing and promoting action at the concentrations used in this test.

## C=C[C@@]1(C)CC(=O)[C@]2(O)[C@@]3(C)[C@@H](O)CCC(C)(C)[C@@H]3[C@H](OC(=O)CCN(C)C)[C@H](OC(C)=O)[C@@]2(C)O1 [NKH-477, 6-(3-dimethylaminopropionyl)forskolin hydrochloride]
[1]
  IC50: 0.234 µM
[2]; before administration 68.5%
  ADP-induced aggregation upon end of administration: 57.5%
[2]
  Inhibition rate, ADP-induced aggregation: 21.7%
[3]; before administration 47.0%
  Epinephrin-induced aggregation upon end of administration: 31.8%
[3]
  Inhibition rate, Epinephrin-induced aggregation: 39.6%
[4]; 1 day elapsed, control 26.4
  Lesion reduction rate in whole-stratum skin cut-off model: 31.7%
[4]; 2 days elapsed, control 36.9
  Lesion reduction rate in whole-stratum skin cut-off model: 50.8%
[4]; 3 days elapsed, control 45.5
  Lesion reduction rate in whole-stratum skin cut-off model: 56.4%
[4]; 5 days elapsed, control 66.8
  Lesion reduction rate in whole-stratum skin cut-off model: 79.1%
[4]; as compared with the control
  curing of skin ulcer: curing of skin ulcer is promoted
[5]; 1 μg/kg i.v., n = 6 (SE 2.9 printed)
  Increase in femoral blood flow rate: 7.6%
[5]; 3 μg/kg i.v., n = 6 (SE 5.2 printed)
  Increase in femoral blood flow rate: 22.9%
[5]; 10 μg/kg i.v., n = 6 (SE 17.7 printed)
  Increase in femoral blood flow rate: 61.7%
[5]; intravenous injection of 1-10 μg/kg
  blood flow rate in the femoral artery: increased the blood flow rate in the femoral artery dose-dependently
[5]; printed 30 μmg/kg i.v., n = 6 (SE 28.7 printed)
  Increase in femoral blood flow rate: 62.2%
[6]; Dose 1.56 μM
  Effect (differentiation inducing): ± (slight (<20%))
[6]; Dose 6.25 μM
  Effect (differentiation inducing): ++ (heavy (>80%))
[6]; Dose 25.00 μM
  Effect (differentiation inducing): ++ (heavy (>80%))
[6]; Dose 100.00 μM
  Effect (differentiation inducing): ++ (heavy (>80%))

— US5789439A, “Pharmaceutical use of forskolin derivatives” (Nippon Kayaku Kabushiki Kaisha, priority 1990, dated 1998)
